Among the data in patent publication US12492186B2, “Bicyclic heterocyclic compounds useful as IRAK4 inhibitors” (BRISTOL-MYERS SQUIBB COMPANY, priority 2019, dated 2025) are IC50 and EC50 values, retold here.

One assay concerns the target IRAK4 (Homo sapiens (Human), UniProt Q9NWZ3). In words: IRAK4 Inhibition Assay. Format: biochemical. Particulars: ATP 500 μM; IRAK4 0.6 nM; 60 min room temperature; Caliper LABCHIP 3000.
A further assay has as its system Human whole blood. The experiment in a line: IRAK4 Whole Blood Assay (IL-6 levels after stimulation with TLR2 agonist lipoteichoic acid). Particulars: 10 μg/mL lipoteichoic acid, 5 hours. Format: cell-based. As for the experimental part:
Human whole blood containing the anti-coagulant ACD-A was plated in 384-well plate (25 μL/well) and incubated with compounds for 60 minutes at 37° C. in a 5% CO2 incubator. The blood was stimulated with a TLR2 agonist, 10 μg/mL final concentration of lipoteichoic acid (Invivogen, San Diego, CA) in 25 μL RPMI (Gibco) for 5 hours in a 5% CO2 incubator. At the end of the incubation, plates were centrifuged at 2300 rpm for 5 minutes. Supernatants were harvested and analyzed for IL-6 levels by Flow Cytometry beads assay (BD Biosciences, San Jose, CA).

Usually IC50 stands for the concentration at which inhibition is half-maximal. The term EC50 denotes the concentration needed to bring the measured effect to its halfway point. A high value points to weaker potency.

Sequence of IRAK4 (Q9NWZ3 whole entry, species assumed): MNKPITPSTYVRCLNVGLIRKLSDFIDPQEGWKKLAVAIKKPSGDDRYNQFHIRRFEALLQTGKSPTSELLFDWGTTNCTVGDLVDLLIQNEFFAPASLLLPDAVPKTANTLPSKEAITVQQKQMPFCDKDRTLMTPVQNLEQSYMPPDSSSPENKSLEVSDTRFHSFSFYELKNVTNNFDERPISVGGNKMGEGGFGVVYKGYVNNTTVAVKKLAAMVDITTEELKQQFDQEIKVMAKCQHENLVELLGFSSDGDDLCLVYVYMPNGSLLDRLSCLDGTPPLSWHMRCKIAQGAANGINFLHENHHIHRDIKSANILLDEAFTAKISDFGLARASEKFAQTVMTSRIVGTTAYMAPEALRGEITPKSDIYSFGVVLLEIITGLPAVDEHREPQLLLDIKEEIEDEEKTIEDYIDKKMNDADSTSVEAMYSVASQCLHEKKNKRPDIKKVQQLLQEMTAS

With `CC(C)Nc1c(C(=O)NC2CCN(Cc3ccc(F)cc3)CC2)cnc2ccc(-c3cn[nH]c3)cc12` [Example 76, N-(1-(4-fluorobenzyl)piperidin-4-yl)-4-(isopropylamino)-6-(1H-pyrazol-4-yl)quinoline-3-carboxamide], at IRAK4, the 50% inhibitory concentration (IC50) is 0.0123 µM. Also, in the assay with Human whole blood, the midpoint of the response, the EC50, lay at 1.69 µM.
The corresponding values for `CC(C)Nc1c(C(=O)NCCCn2ccnc2)cnc2ccc(-c3cn[nH]c3)cc12` [Example 103, N-(3-(1H-imidazol-1-yl)propyl)-4-(isopropylamino)-6-(1H-pyrazol-4-yl)quinoline-3-carboxamide] are 0.011 µM and 2.72 µM.
The like results for `CC(C)Nc1c(C(=O)NCCC2CC2)cnc2ccc(-c3cncs3)nc12` [Example 148, N-(2-cyclopropylethyl)-4-(isopropylamino)-6-(thiazol-5-yl)-1,5-naphthyridine-3-carboxamide] were, in that order, 0.0164 µM and 5.42 µM.
The corresponding values for `CC(C)Nc1c(C(=O)NCCC2CCCN2)cnc2ccc(-c3cn[nH]c3)cc12` (stereo not drawn) [Example 96, 4-(isopropylamino)-6-(1H-pyrazol-4-yl)-N-(2-(pyrrolidin-2-yl)ethyl)quinoline-3-carboxamide] are 0.0114 µM and 1.28 µM.
Regarding `CC(C)Nc1c(C(=O)NCCCNS(C)(=O)=O)cnc2ccc(-c3cn[nH]c3)cc12` [Example 95, 4-(isopropylamino)-N-(3-(methylsulfonamido)propyl)-6-(1H-pyrazol-4-yl)quinoline-3-carboxamide], the IC50 at IRAK4 is 0.0105 µM. The response in the assay on Human whole blood was half-maximal at 3.22 µM (EC50).
`CC(C)Nc1c(C(=O)NCCC2CCNC2)cnc2ccc(-c3cn[nH]c3)cc12` (stereo not drawn) [Example 97, 4-(isopropylamino)-6-(1H-pyrazol-4-yl)-N-(2-(pyrrolidin-3-yl)ethyl)quinoline-3-carboxamide]: the concentration for half-maximal inhibition (IC50) on IRAK4 amounted to 0.0097 µM. In the assay with Human whole blood, this compound showed a half-maximal effective concentration (EC50) of 2.08 µM.
The corresponding values for `CC1(Nc2c(C(=O)NCCN3CCS(=O)(=O)CC3)cnc3ccc(-c4cn[nH]c4)cc23)CC1` [Example 119, N-(2-(1,1-dioxidothiomorpholino)ethyl)-4-((1-methylcyclopropyl)amino)-6-(1H-pyrazol-4-yl)quinoline-3-carboxamide] are 0.0032 µM and 1.18 µM.
The corresponding values for `CC(C)Nc1c(-c2cn(C3CCN(C)C3=O)nn2)cnc2ccc(-c3cn[nH]c3)cc12` (stereo not drawn) [Example 136, 3-(4-(4-(isopropylamino)-6-(1H-pyrazol-4-yl)quinolin-3-yl)-1H-1,2,3-triazol-1-yl)-1-methylpyrrolidin-2-one] are 0.0114 µM and 5.09 µM.
As to `CC(C)Nc1c(-c2cn(C3CN(CC(F)F)C3)nn2)cnc2ccc(-c3cn[nH]c3)cc12` [Example 134, 3-(1-(1-(2,2-difluoroethyl)azetidin-3-yl)-1H-1,2,3-triazol-4-yl)-N-isopropyl-6-(1H-pyrazol-4-yl)quinolin-4-amine], the IC50 on IRAK4 came to 0.0063 µM. This compound also had a 50% effective concentration (EC50) in the assay with Human whole blood of 0.981 µM.
The like results for `CC1(Nc2c(C(=O)NCC3CCS(=O)(=O)C3)cnc3ccc(-c4cn[nH]c4)cc23)CC1` (stereo not drawn) [Example 123, N-((1,1-dioxidotetrahydrothiophen-3-yl)methyl)-4-((1-methylcyclopropyl)amino)-6-(1H-pyrazol-4-yl)quinoline-3-carboxamide] were, in that order, 0.0041 µM and 0.606 µM.
The corresponding values for `CC(=O)N[C@H]1CC[C@H](NC(=O)c2cnc3ccc(-c4cn[nH]c4)cc3c2NC(C)C)CC1` [Example 24, N-((1r,4r)-4-acetamidocyclohexyl)-4-(isopropylamino)-6-(1H-pyrazol-4-yl)quinoline-3-carboxamide] are 0.0077 µM and 0.584 µM.
In the case of `CC(C)Nc1c(-c2cn(C3CCNCC3)nn2)cnc2ccc(-c3cn[nH]c3)cc12` [Example 133, N-isopropyl-3-(1-(piperidin-4-yl)-1H-1,2,3-triazol-4-yl)-6-(1H-pyrazol-4-yl)quinolin-4-amine], at IRAK4, the IC50 worked out at 0.0029 µM. Besides, the EC50 in the assay with Human whole blood is 0.779 µM.
